Experimental data reported in patent US5631222A, “Endothelin-antagonizing peptide” (Kyowa Hakko Kogyo Co., Ltd., priority 1993, dated 1997).
Non-standard residues stand in square brackets, D forms with d. Residues, ends and D or L forms follow the SMILES beside them. NMeI = CC[C@H](C)[C@H](NC)C(=O)O; 2Thi = N[C@@H](Cc1cccs1)C(=O)O; NMeL = CN[C@@H](CC(C)C)C(=O)O; Phg = N[C@H](C(=O)O)c1ccccc1; Nle = CCCC[C@H](N)C(=O)O; Nva = CCC[C@H](N)C(=O)O; Abu = CC[C@H](N)C(=O)O

target: T1, endothelin receptor (Bos taurus, UniProt P28088); assay: Endothelin receptor-antagonizing activity: inhibition of 125I-endothelin-1 binding to bovine cerebellum membrane fraction; conditions: 125I-Endothelin-1, bovine cerebellum membrane fraction, 25° C. for 2 hours; read-out: IC50: Concentration causing 50% inhibition of endothelin1 binding
T1 construct: the suspension was used as a membrane fraction liquid; from tissue; host or cells: bovine cerebellum membrane fraction
T1 sequence (P28088 27-441): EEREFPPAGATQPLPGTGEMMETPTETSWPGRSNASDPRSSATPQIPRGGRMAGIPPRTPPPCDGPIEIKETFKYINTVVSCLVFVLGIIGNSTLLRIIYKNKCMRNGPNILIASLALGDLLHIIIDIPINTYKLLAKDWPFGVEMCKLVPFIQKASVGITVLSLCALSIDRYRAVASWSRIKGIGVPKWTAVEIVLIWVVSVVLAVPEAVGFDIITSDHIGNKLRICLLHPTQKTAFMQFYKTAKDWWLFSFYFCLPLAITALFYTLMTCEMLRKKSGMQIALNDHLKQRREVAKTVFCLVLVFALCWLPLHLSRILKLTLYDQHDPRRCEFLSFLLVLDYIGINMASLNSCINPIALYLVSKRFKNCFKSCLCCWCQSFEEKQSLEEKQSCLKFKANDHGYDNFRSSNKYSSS
Method: Bovine cerebellum tissue was homogenized at 4° C. by using POLYTRON (type PT10/35, manufactured by Kinematic Gmbh Co.) in a buffer solution A (1 mM NaHCO3, 5 mM ethylenediaminetetraacetic acid, 5 μg/ml leupeptin, 5 μg/ml pepstatin A, 40 μM phenylmethylsulfonyl fluoride, pH 8.3).
The obtained suspension was centrifuged for 10 minutes at 8,000 G and 4° C., and the resulting supernatant was centrifuged for 60 minutes at 40,000 G and 4° C. to obtain pellets. The obtained pellets were suspended in a buffer solution A and again centrifuged for 60 minutes at 40,000 G and 4° C. The resulting solid substance was prepared as a suspension containing 2 mg/ml of protein, and the suspension was used as a membrane fraction liquid. […] These mixtures were incubated at 25° C. for 2 hours, and then filtered with a GF/B glass filter (produced by Whatman Co.). […] The inhibition ratio against endothelin receptor binding activity was calculated according to the following equation:
Inhibition ratio (%)=(C-A/C-B)×100
B: Radioactivity in the presence of unlabelled endothelin-1
C: Radioactivity in the absence of both of the compound shown in Table 2 and unlabelled endothelin-1

**Q.** Which IC50 does the source give for `CC[C@H](NC(=O)[C@@H](NC(=O)[C@H](CC(C)C)NC(=O)[C@H](Cc1c[nH]cn1)NC(=O)[C@H](C)NC(=O)[C@H](Cc1ccccc1)NC(=O)[C@H](Cc1ccc(O)cc1)NC(=O)[C@@H](NC(=O)[C@H](Cc1c[nH]c2ccccc12)NC(=O)[C@H](CC(=O)O)NC(=O)[C@@H]1CCCN1C(=O)[C@H](C)NC(=O)[C@@H](NC(=O)CNC(=O)[C@H](Cc1c[nH]cn1)NC(=O)[C@H](Cc1c[nH]c2ccccc12)NC(=O)[C@H](CC(N)=O)NC(=O)CN)[C@@H](C)O)C(C)C)[C@@H](C)O)C(=O)N[C@H](C(=O)N[C@@H](Cc1c[nH]c2ccccc12)C(=O)O)[C@@H](C)CC` [Compound 15, HGlyAsnTrpHisGlyThrAlaProAspTrpValTyrPheAlaHisLeuThrAbuIleTrpOH] (H-GNWHGTAPDWVYFAHLT[Abu]IW-OH) here?
**A.** Its IC50 is 0.11 nM.

**Q.** With `CC[C@H](C)[C@H](NC(=O)[C@H](CC(C)C)N(C)C(=O)[C@@H](NC(=O)[C@H](CC(C)C)NC(=O)[C@H](Cc1c[nH]cn1)NC(=O)[C@H](C)NC(=O)[C@H](Cc1ccccc1)NC(=O)[C@H](Cc1ccc(O)cc1)NC(=O)[C@@H](NC(=O)[C@H](Cc1c[nH]c2ccccc12)NC(=O)[C@H](CC(=O)O)NC(=O)[C@@H]1CCCN1C(=O)[C@H](C)NC(=O)[C@@H](NC(=O)CNC(=O)[C@H](Cc1c[nH]cn1)NC(=O)[C@H](Cc1c[nH]c2ccccc12)NC(=O)[C@H](CC(N)=O)NC(=O)CN)[C@@H](C)O)C(C)C)[C@@H](C)O)C(=O)N[C@@H](Cc1c[nH]c2ccccc12)C(=O)O` [Compound 23, HGlyAsnTrpHisGlyThrAlaProAspTrpValTyrPheAlaHisLeuThrMeLeuIleTrpOH] (H-GNWHGTAPDWVYFAHLT[NMeL]IW-OH) as the molecule, how does the IC50 read?
**A.** The IC50 was 54 nM.

**Q.** With `CC[C@H](C)[C@H](NC(=O)[C@H]([C@@H](C)CC)N(C)C(=O)[C@@H](NC(=O)[C@H](CC(C)C)NC(=O)[C@H](Cc1c[nH]cn1)NC(=O)[C@H](C)NC(=O)[C@H](Cc1ccccc1)NC(=O)[C@H](Cc1ccc(O)cc1)NC(=O)[C@@H](NC(=O)[C@H](Cc1c[nH]c2ccccc12)NC(=O)[C@H](CC(=O)O)NC(=O)[C@@H]1CCCN1C(=O)[C@H](C)NC(=O)[C@@H](NC(=O)CNC(=O)[C@H](Cc1c[nH]cn1)NC(=O)[C@H](Cc1c[nH]c2ccccc12)NC(=O)[C@H](CC(N)=O)NC(=O)CN)[C@@H](C)O)C(C)C)[C@@H](C)O)C(=O)N[C@@H](Cc1c[nH]c2ccccc12)C(=O)O` [Compound 24, HGlyAsnTrpHisGlyThrAlaProAspTrpValTyrPheAlaHisLeuThrMeIleIleTrpOH] (H-GNWHGTAPDWVYFAHLT[NMeI]IW-OH) as the molecule, how does the IC50 read?
**A.** The IC50 was 50 nM.

**Q.** `CC[C@H](C)[C@H](NC(=O)[C@@H](NC(=O)[C@@H](NC(=O)[C@H](CC(C)C)NC(=O)[C@H](Cc1c[nH]cn1)NC(=O)[C@H](C)NC(=O)[C@H](Cc1ccccc1)NC(=O)[C@H](Cc1ccc(O)cc1)NC(=O)[C@@H](NC(=O)[C@H](Cc1c[nH]c2ccccc12)NC(=O)[C@H](CC(=O)O)NC(=O)[C@@H]1CCCN1C(=O)[C@H](C)NC(=O)[C@@H](NC(=O)CNC(=O)[C@H](Cc1c[nH]cn1)NC(=O)[C@H](Cc1c[nH]c2ccccc12)NC(=O)[C@H](CC(N)=O)NC(=O)CN)[C@@H](C)O)C(C)C)[C@@H](C)O)c1ccccc1)C(=O)N[C@@H](Cc1c[nH]c2ccccc12)C(=O)O` [Compound 25, HGlyAsnTrpHisGlyThrAlaProAspTrpValTyrPheAlaHisLeuThrPhgIleTrpOH] (H-GNWHGTAPDWVYFAHLT[Phg]IW-OH) was tested. Which IC50 did it give?
**A.** The IC50 was 0.58 nM.

**Q.** `CCCC[C@H](NC(=O)[C@@H](NC(=O)[C@H](CC(C)C)NC(=O)[C@H](Cc1c[nH]cn1)NC(=O)[C@H](C)NC(=O)[C@H](Cc1ccccc1)NC(=O)[C@H](Cc1ccc(O)cc1)NC(=O)[C@@H](NC(=O)[C@H](Cc1c[nH]c2ccccc12)NC(=O)[C@H](CC(=O)O)NC(=O)[C@@H]1CCCN1C(=O)[C@H](C)NC(=O)[C@@H](NC(=O)CNC(=O)[C@H](Cc1c[nH]cn1)NC(=O)[C@H](Cc1c[nH]c2ccccc12)NC(=O)[C@H](CC(N)=O)NC(=O)CN)[C@@H](C)O)C(C)C)[C@@H](C)O)C(=O)N[C@H](C(=O)N[C@@H](Cc1c[nH]c2ccccc12)C(=O)O)[C@@H](C)CC` [Compound 26, HGlyAsnTrpHisGlyThrAlaProAspTrpValTyrPheAlaHisLeuThrNleIleTrpOH] (H-GNWHGTAPDWVYFAHLT[Nle]IW-OH) was tested. Which IC50 did it give?
**A.** The IC50 was 0.63 nM.

**Q.** With `CC[C@H](C)[C@H](NC(=O)[C@H](Cc1cccs1)NC(=O)[C@@H](NC(=O)[C@H](CC(C)C)NC(=O)[C@H](Cc1c[nH]cn1)NC(=O)[C@@H](C)NC(=O)[C@H](Cc1ccccc1)NC(=O)[C@H](Cc1ccc(O)cc1)NC(=O)[C@@H](NC(=O)[C@H](Cc1c[nH]c2ccccc12)NC(=O)[C@H](CC(=O)O)NC(=O)[C@@H]1CCCN1C(=O)[C@H](C)NC(=O)[C@@H](NC(=O)CNC(=O)[C@H](Cc1c[nH]cn1)NC(=O)[C@H](Cc1c[nH]c2ccccc12)NC(=O)[C@H](CC(N)=O)NC(=O)CN)[C@@H](C)O)C(C)C)[C@@H](C)O)C(=O)N[C@@H](Cc1c[nH]c2ccccc12)C(=O)O` [Compound 27, HGlyAsnTrpHisGlyThrAlaProAspTrpValTyrPheD-AlaHisLeuThrThiIleTrpOH] (H-GNWHGTAPDWVYF[dA]HLT[2Thi]IW-OH) as the molecule, how does the IC50 read?
**A.** The IC50 was 4.9 nM.

**Q.** Which IC50 does the source give for `CC[C@H](C)[C@H](NC(=O)[C@H](Cc1cccs1)NC(=O)[C@@H](NC(=O)[C@H](CC(C)C)NC(=O)[C@@H](Cc1c[nH]c2ccccc12)NC(=O)[C@H](C)NC(=O)[C@H](Cc1ccccc1)NC(=O)[C@H](Cc1ccc(O)cc1)NC(=O)[C@@H](NC(=O)[C@H](Cc1c[nH]c2ccccc12)NC(=O)[C@H](CC(=O)O)NC(=O)[C@@H]1CCCN1C(=O)[C@H](C)NC(=O)[C@@H](NC(=O)CNC(=O)[C@H](Cc1c[nH]cn1)NC(=O)[C@H](Cc1c[nH]c2ccccc12)NC(=O)[C@H](CC(N)=O)NC(=O)CN)[C@@H](C)O)C(C)C)[C@@H](C)O)C(=O)N[C@@H](Cc1c[nH]c2ccccc12)C(=O)O` [Compound 28, HGlyAsnTrpHisGlyThrAlaProAspTrpValTyrPheAlaD-TrpLeuThrThiIleTrpOH] (H-GNWHGTAPDWVYFA[dW]LT[2Thi]IW-OH) here?
**A.** The IC50 was 89 nM.

**Q.** `CCC[C@H](NC(=O)[C@H](Cc1c[nH]cn1)NC(=O)[C@H](C)NC(=O)[C@H](Cc1ccccc1)NC(=O)[C@H](Cc1ccc(O)cc1)NC(=O)[C@@H](NC(=O)[C@H](Cc1c[nH]c2ccccc12)NC(=O)[C@H](CC(=O)O)NC(=O)[C@@H]1CCCN1C(=O)[C@H](C)NC(=O)[C@@H](NC(=O)CNC(=O)[C@H](Cc1c[nH]cn1)NC(=O)[C@H](Cc1c[nH]c2ccccc12)NC(=O)[C@H](CC(N)=O)NC(=O)CN)[C@@H](C)O)C(C)C)C(=O)N[C@H](C(=O)N[C@@H](Cc1cccs1)C(=O)N[C@H](C(=O)N[C@@H](Cc1c[nH]c2ccccc12)C(=O)O)[C@@H](C)CC)[C@@H](C)O` [Compound 29, HGlyAsnTrpHisGlyThrAlaProAspTrpValTyrPheAlaHisNvaThrThiIleTrpOH] (H-GNWHGTAPDWVYFAH[Nva]T[2Thi]IW-OH) was tested. Which IC50 did it give?
**A.** Its IC50 is 0.37 nM.

**Q.** With `CC[C@H](C)[C@H](NC(=O)[C@H](Cc1cccs1)NC(=O)CNC(=O)[C@H](CC(C)C)NC(=O)[C@H](Cc1c[nH]cn1)NC(=O)[C@H](C)NC(=O)[C@H](Cc1ccccc1)NC(=O)[C@H](Cc1ccc(O)cc1)NC(=O)[C@@H](NC(=O)[C@H](Cc1c[nH]c2ccccc12)NC(=O)[C@H](CC(=O)O)NC(=O)[C@@H]1CCCN1C(=O)[C@H](C)NC(=O)[C@@H](NC(=O)CNC(=O)[C@H](Cc1c[nH]cn1)NC(=O)[C@H](Cc1c[nH]c2ccccc12)NC(=O)[C@H](CC(N)=O)NC(=O)CN)[C@@H](C)O)C(C)C)C(=O)N[C@@H](Cc1c[nH]c2ccccc12)C(=O)O` [Compound 30, HGlyAsnTrpHisGlyThrAlaProAspTrpValTyrPheAlaHisLeuGlyThiIleTrpOH] (H-GNWHGTAPDWVYFAHLG[2Thi]IW-OH) as the molecule, how does the IC50 read?
**A.** The IC50 was 170 nM.
